Legend:
[1] = system: human limbal explants; experiment: Epithelial outgrowth from human limbal explants cultured on intact AM with kinase inhibitors; assay type: cell-based; details: 10 μM
Procedure: Human AM was provided by Bio-Tissue (Miami, Fla.) and stored at −80° C. before use. AM was devitalized by freezing and thawing and washed three times with HBSS before being fastened onto a 30 mm culture insert, Millicel-CM (which generated an insert with 23 mm diameter covered by AM), and placed in a 6 well plate (Meller, D. and Tseng S C G, Invest Ophthalmol Vis Sci., 40:878-86, 1999).
After removal of excessive sclera, iris, corneal endothelium, conjunctiva, and Tenon's capsule, the limbal ring was separated by a 7.5 mm trephine from donor human corneas. Each limbal ring was rinsed 3 times with SHEM media. The limbal ring was then exposed for 10 min to 1.2 units/ml Dispase II in Mg^2+- and Ca^2+-free HBSS at 37° C. under 95% humidity and 5% CO2. Following three rinses with SHEM medium, each limbal ring was subdivided into two halves and each half further subdivided into 6 pieces of 1×1.5×2.5 mm explants. To eliminate variations of age, sex, and race, explants from the corresponding position of the same donor cornea were selected for the control and the experimental group, respectively. An explant was placed on the center of intact AM or plastic with the epithelial side facing up and cultured in SHEM medium. The experimental group was added with the inhibitor of desired concentration, while the control group was added with the same concentration of DMSO as the vehicle which was used to dissolve each inhibitor. The culture was maintained at 37° C. under 95% humidity and 5% CO2, the medium was changed every other day, and their outgrowth was monitored daily for 17 days using an inverted phase microscope (Nikon, Japan). The outgrowth area was digitized every other day by Adobe Photoshop 5.5 and analyzed by NIH ImageJ 1.30v (NIH, Bethesda, Md.).
All experiments were performed at least in triplicate. Summary data were reported as means±S.D., compiled and analyzed by MicroSoft Excel™ (MicroSoft, Redmont, Wash.). The mean and standard deviation were calculated for each group using the appropriate version of Student's unpaired t-test. Test results were reported as two-tailed p values, where p<0.05 was considered statistically significant.

[2] = system: p38 MAPK; experiment: Western blot of p38 MAPK phosphorylation in limbal epithelial cells expanded on intact AM; details: 10 μM
[3] = system: corneal limbal epithelial cells; experiment: Type IV collagen immunostaining of epithelial outgrowth from human limbal explants on denuded AM; assay type: cell-based; details: explant on dAM in SHEM
[4] = system: limbal epithelial progenitor cells; experiment: K12 and K10 immunostaining of human limbal explants in airlift culture; assay type: cell-based; details: SHEM, 2 weeks, 10 μM
Procedure: (§1) Human limbal tissue cubes can be placed in the alternative on the center of type I collagen coated inserts and cultured in SHEM medium under submerge and airlift manners, of which the later was also added with p38 inhibitor. In the submerge manner, 4 ml culture medium was added to the culture dish to cover the entire limbal explant. In the airlift manner, 2 ml culture medium was added so as to let the insert bottom sit on the air-liquid interface. That is, the explant was exposed to air, but the remaining explant stroma was submerged in the medium meniscus. In the airlift+p38 inhibitor group, p 38 inhibitor SB 203580 was added to culture medium at a concentration of 10 μM. Cultures were incubated at 37° C. under 5% CO2 and 95% air, and the medium is changed every 2 days. Rabbit limbal explants are also cultured in the same fashion as the human tissue. Limbal tissue cubes are placed on the center of type I collagen coated inserts and cultured under airlift manner in SHEM medium with or without p38 inhibitor SB203580 for 1 week.
To study the effect of p38 inhibitor on the differentiation of limbal epithelial progenitor cells, human corneal limbal explants were cultured under submerge and airlift manners, of which the later was added with or without p38 inhibitor, on type I collagen coated inserts in SHEM medium for 2 weeks. […]

[5] = system: p44/42 MAPK; experiment: Western blot of p44/42 MAPK phosphorylation in limbal epithelial cells expanded on intact AM; assay type: cell-based, human; details: 10 μM
[6] = system: rabbit corneal limbal explant; experiment: Rabbit limbal explant outgrowth on type I collagen coated insert, airlift culture; assay type: cell-based; details: SHEM
Procedure: as §1
To study the effect of p38 inhibitor on the outgrowth epithelial sheet, rabbit corneal limbal explant is cultured on the type I collagen coated insert under the airlift manner in SHEM medium for 1 week with or without addition of p38 inhibitor (FIG. 2).

Compound: C[S+]([O-])c1ccc(-c2nc(-c3ccncc3)c(-c3ccc(F)cc3)[nH]2)cc1 (stereo not shown) [SB203580]
- day at which epithelial outgrowth was noted / started [1]: 5 days
- epithelial outgrowth ([1]; limbal explant on intact AM in SHEM, up to 17 days, vs DMSO control): did not change the outgrowth
- phosphorylation at Thr180/Tyr182 of p38 MAPK [2]: abolished
- type IV collagen staining of outgrowth epithelial cells ([3]; 2 weeks): intracellular staining
- type IV collagen staining of outgrowth epithelial cells ([3]; 4 weeks): strong linear band staining
- K10 positive cells in limbal and corneal epithelium [4]: no K10 positive cells
- K12 expression in the limbal epithelium [4]: restored
- phosphorylation of p44/42 MAPK (Thr202 and Tyr204) [5]: did increase
- outgrowth rate based on outgrowth surface area ([6]; 1 week): not inhibited
- outgrowth sheet in H&E stained cross-sections ([6]; with p38 inhibitor): intact and consisted of uniformly two layers
